One may read the LD50 as the dose expected to kill half of the subjects tested. One may read the ED50 as the midpoint of the dose-response relation.

Read-outs that look alike come from different tables or passages of the source.

Data on 11 molecules can be found in patent US4041032A, “Pyrazine derivatives” (priority 1974, dated 1977).

One series is described as follows: in vivo. The conditions noted are these: for selectivity ratio: LD50 mouse i.v. / antiemetic ED50 dog s.c., x 1/1000, Table I, read-out: Safety margin (LD50/ED50); for LD50 at 168 h: iv, mouse, i.v. tail injection, mortality after one week, Table I, read-out: Toxicity LD50. As for the experimental part:
Each of the test samples was injected intravenously to a mouse in the tail portion at a rate of 0.1 ml./10 g./10 sec. by an up and down method. The mortality rate after one week was checked and from the relation between the amount of the sample used and the mortality rate, LD50 (mg/kg) was determined.

The test system of series [1] is emesis induced by apomorphine. The series is described as follows: Antiemetic activity, subcutaneous (apomorphine-induced emesis). Type of series: in vivo, dog. The conditions noted are these: for ED50: Canis lupus familiaris, sc, read-out: Antiemetic activity ED50 (s.c); for Antiemetic activity ED50 (s.c): Table II. As for the experimental part:
Each of the test samples was administered to a dog by subcutaneous injection; then 0.1 mg./kg. of apomorphine was administered to a dog by subcutaneous injection after 30 minutes, and the frequency of emesis within 30 minutes after the injection was measured. (Each dog was used only once). From the frequency of emesis, the inhibition rate was calculated and from the relation between the amount of the sample used and the inhibition rate, ED50 (μg/kg.) was determined. Drug activity was assessed by ED50 values.
1. Subcutaneous administration:
Same as Experiment (I-a).

Series [2] in a line: Cataleptic activity (Courvoisier's method). The conditions noted are these: in vivo, sc, rat. As for the experimental part:
According to the Courvoisier's method (Courvoisier, S, Durcot, R. & Jolou, L, (1957), Psychotropic drugs (Ed. Garattini, S and Ghetti, V.), p. 373, Else vier Publishing Company, Amsterdam, London, New York, Princeton), the four limbs of a rat were placed on four rubber stoppers and when the rat could maintain the same pose for 30 seconds, the rat was determined to be positive. The catalepsy was measured every 30 minutes till 240 minutes after the subcutaneous administration of the sample. The sample that produced a positive response in rat even once was determined to be positive in the cataleptic test. From the relation between the positive response and the amount of the sample, ED50 (mg/kg) was determined.

Series [3] deals with emesis induced by apomorphine. Briefly: Antiemetic activity, oral (apomorphine-induced emesis). Type of series: in vivo, dog. The conditions noted are these: for ED50: Canis lupus familiaris, po, dog, p.o. in capsules with lactose, 90 min before apomorphine 0.1 mg/kg s.c., Table II; for Activity efficiency (ED50 p.o/ED50 s.c): antiemetic ED50, dog. As for the experimental part:
2. Oral administration: Each of the test samples was mixed with lactose and was filled in capsules. The capsules were orally administered to a dog, 0.1 mg./kg. of apomorphine was administered to the dog by subcutaneous injection after 90 minutes, and then the frequency of emesis was measured within 30 minutes after the apomorphine injection. (Each dog was used only once.) The drugs were evaluated by ED50 values in the same way as described in Experiment I-a.

Series [4] deals with spontaneous motility of the stomach. The series is described as follows: Effect of stimulating gastric motility (ballon method). The series is classed as in vivo. The conditions noted are these: anesthetized dog, i.v.; Table III. As for the experimental part:
After anesthetizing a dog which had fasted overnight by intravenously injecting 30 mg./kg. of pentobarbital, each of the test samples was injected intravenously and then the spontaneous motility of the stomach was recorded by means of a polygraph (RM-150, made by Nihon Koden K. K.) according to the ballon method (Jap. J. Smooth Muscle Res., 2, 15(1966)). In addition, the effect of stimulating the gastric motility was denoted as (+) and (++) respectively when 10 mg./kg. and 5 mg./kg. each of the sample was intervenously injected and the stimulated motility of the stomach continued longer than 20 minutes.

The next series relates to emesis. The conditions noted are these: in vivo; cited from earlier work.
For a further series, the system named is catalepsy. The conditions noted are these: in vivo; cited from earlier work.
For a further series, the system named is gastric motility. The conditions noted are these: in vivo; cited from earlier work.
The mark [5] stands for this setting: dog, s.c., 30 min before apomorphine 0.1 mg/kg s.c., Table I.
The mark [6] stands for this setting: s.c., every 30 min till 240 min, symbol of Table II, read-out: Catalepsy ED50 (not measurable, symbol).
The mark [7] stands for this setting: dog, s.c., 30 min before apomorphine 0.1 mg/kg s.c.

In the case of `CCN(CC)CCNC(=O)c1nc(Cl)c(NC)nc1OC` [N-(2-diethylaminoethyl)-6-chloro-3-methoxy-5-methylaminopyrazine-2-carboxamide], in the series “in vivo”, the selectivity ratio was found to be 9100 and the LD50 at 168 h was 91 mg/kg. For the same molecule, in series [1] (setting [5]), the ED50 came out at 0.01 mg/kg.
On to `CCN1CCCC1CNC(=O)c1nc(Cl)c(N)nc1OC` (centres unmarked) [N-(1-ethylpyrrolidin-2-ylmethyl)-5-amino-6-chloro-3-methoxypyrazine-2-carboxamide], for which, in “in vivo”, the selectivity ratio turned out to be 45700 and the LD50 at 168 h stood at 91.3 mg/kg. Further, in series [2] (setting [6]), the ED50 at 4 h was more than 100 mg/kg. Besides, the ED50 in series [1] (setting [5]) stood at 0.002 mg/kg. In series [3], the 50% effective dose (ED50) came out at 0.004 mg/kg and the “Activity efficiency (ED50 p.o/ED50 s.c)” value worked out at 2.0.
With `CCNc1nc(OC)c(C(=O)NCC2CCCN2CC)nc1Cl` (centres unmarked) [N-(1-ethylpyrrolidin-2-ylmethyl)-6-chloro-5-ethylamino-3-methoxypyrazine-2-carboxamide], in the series “in vivo”, the selectivity ratio stood at 23500 and the LD50 at 168 h was 61.1 mg/kg. The ED50 at 4 h in series [2] (setting [6]) is more than 100 mg/kg. In addition, in series [1] (setting [5]), the ED50 is 0.0026 mg/kg. Further, the “Antiemetic activity ED50 (s.c)” value in series [1] (setting [7]) worked out at 0.0026 mg/kg. In series [3], the ED50 came to 0.006 mg/kg and the “Activity efficiency (ED50 p.o/ED50 s.c)” value is 2.3.
In the case of `CCN1CCCC1CNC(=O)c1nc(Cl)cnc1OC` (centres unmarked) [N-(1-ethylpyrrolidin-2-ylmethyl)-5-chloro-2-methoxypyrazine-3-carboxamide], in the series “in vivo”, the selectivity ratio was found to be 8500 and the LD50 at 168 h came to 170 mg/kg. Further, in series [1] (setting [5]), the ED50 was 0.02 mg/kg.
In the case of `CCNc1nc(OC)c(C(=O)NCCN(CC)CC)nc1Cl` [N-(2-diethylaminoethyl)-6-chloro-5-ethylamino-3-methoxypyrazine-2-carboxamide], in “in vivo”, the selectivity ratio amounted to 4550 and the LD50 at 168 h was determined as 91 mg/kg. In series [4], the “Effect of stimulating gastric motility” value is given as “+ to ++”. In series [2] (setting [6]), the ED50 at 4 h was more than 100 mg/kg. Moreover, the ED50 in series [1] (setting [5]) is 0.02 mg/kg. Further, the “Antiemetic activity ED50 (s.c)” value in series [1] (setting [7]) stood at 0.02 mg/kg. Besides, in series [3], the ED50 was 0.065 mg/kg and the “Activity efficiency (ED50 p.o/ED50 s.c)” value was 3.3.
Turning to `CN(C)CCCN1c2ccccc2Sc2ccc(Cl)cc21` [chlorpromazine, reference compound], in the series “in vivo”, the selectivity ratio was found to be 290 and the LD50 at 168 h is 71.4 mg/kg. For the same molecule, the ED50 at 4 h in series [2] (s.c., every 30 min till 240 min, Table II, read-out: Catalepsy ED50) stood at 7 mg/kg. Besides, in series [1], the ED50 was found to be 0.25 mg/kg. For the same molecule, the “Antiemetic activity ED50 (s.c)” value in series [1] (setting [7]) was found to be 0.25 mg/kg. Also, in series [3], the median effective dose (ED50) is 2 mg/kg and the “Activity efficiency (ED50 p.o/ED50 s.c)” value worked out at 8.0.
`CCN(CC)CCNC(=O)c1nc(Cl)c(N)nc1OC` [N-(2-diethylaminoethyl)-5-amino-6-chloro-3-methoxypyrazine-2-carboxamide]: in the series “in vivo”, the selectivity ratio was 12500 and the 50% lethal dose (LD50) at 168 h was found to be 150 mg/kg. In addition, the ED50 at 4 h in series [2] (setting [6]) was more than 100 mg/kg. In addition, the ED50 in series [1] (setting [5]) was 0.012 mg/kg. Also, the “Antiemetic activity ED50 (s.c)” value in series [1] (setting [7]) was determined as 0.012 mg/kg. Further, in series [3], it took a dose of 0.07 mg/kg to reach the 50% effect level (ED50) and the “Activity efficiency (ED50 p.o/ED50 s.c)” value is 5.8.
For the molecule `CCN(CC)CCNC(=O)c1nc(Cl)c(Nc2ccccc2)nc1OC` [N-(2-diethylaminoethyl)-5-anilino-6-chloro-3-methoxypyrazine-2-carboxamide], the “Effect of stimulating gastric motility” value in series [4] was “+ to ++”.
Regarding `CCOc1nc(N)c(Cl)nc1C(=O)NCCN(CC)CC` [N-(2-diethylaminoethyl)-5-amino-6-chloro-3-ethoxypyrazine-2-carboxamide], in the series “in vivo”, the selectivity ratio was determined as 6010 and the LD50 at 168 h was found to be 72.1 mg/kg. In addition, the ED50 in series [1] (setting [5]) worked out at 0.012 mg/kg.
Taken in the same sequence, the figures for `CCNc1nc(OC)c(C(=O)NCC2CCCN2C)nc1Cl` (centres unmarked) [N-(1-methylpyrrolidin-2-ylmethyl)-6-chloro-5-ethylamino-3-methoxypyrazine-2-carboxamide] were 15000, 45 mg/kg and 0.003 mg/kg.
In the case of `CCN(CC)CCNC(=O)c1cc(Cl)c(N)cc1OC` [metoclopramide, N-(diethylaminoethyl)-4-amino-5-chloro-2-methoxybenzamide, reference compound], in “in vivo”, the LD50 at 168 h came to 61 mg/kg. Further, the ED50 at 4 h in series [2] stood at 45 mg/kg. Also, the “Antiemetic activity, literature” value in the series with emesis is recorded as “stronger antiemetic activity than chlorpromazine”. Also, the ED50 in series [1] (setting [5]) was 0.03 mg/kg; in series [3], 0.13 mg/kg. In series [1] (setting [7]), the “Antiemetic activity ED50 (s.c)” value was determined as 0.03 mg/kg. Further, the “Catalepsy, literature” value in the series with catalepsy is “produces catalepsy as a side effect”. The “Effect on gastric motility, literature” value in the series with gastric motility is given as “effect of stimulating gastric motility”.
